Counter-ions that a name gives are not always drawn.
Assays:
[1] = tested on: MDA-MB-231 orthotopic xenograft; experiment: In vivo drug testing: tumor growth in orthotopic xenograft (caliper and BLI); set-up: species or system NU/NU nude mice; settings: weekly i.v. 3.24 mg/Kg; caliper; mean ± spread
Experimental: MDA-MB-231 labeled with luciferase probe (2×10^6 cells/100 μl matrigel) were orthotopically injected into the right mammary fad pad of female immunodeficient NU/NU nude mice [NU-Foxn1nu] 8-10 weeks old (Charles River Laboratories, Wilmington, MA, USA). NU/NU nude mice were housed five per cage at the HMRI animal facility, there were maintained under pathogen free conditions and on low-fluorescence diet according to the National Institutes of Health guidelines.
(§1) Tumor size and body weight were measured with caliper and a digital balance once a week. Tumor volume was calculated according to the formula (W×W×L)/2, where W and L represent the width and the length of tumor, respectively. Body weight change % was calculated were calculated by comparing weights at the start and end of therapy throught the formula throught the formula weight DO/weight D33%.
Furthermore, the impact on tumor growth was validated by performing bioluminescence imaging (BLI) of TNBC tumors at Day 0 and Day 33 (FIG. 4B, Figure S4 supportive information). This was performed in order to support the caliper measurements since the bioluminescent signal obtained from BLI is directly related to the viability of cells and could serve as metric to evaluate impact of therapy. The BLI quantification percentage was calculated throught the formula BLI DO/BLI D33%. […]

[2] = tested on: collagen scaffold cultured with MDA-MB-231; experiment: Mechanical testing: stiffness of collagen scaffolds under unconfined uniaxial compression; assay type: cell-based, human; settings: 72 h of treatment; CTR 67.3 kPa
Description: As previously described, an in-house built instrument prototype was developed by the inventors to apply a state of unconfined uniaxial compression to the collagen scaffolds. The applied stress (r, in kPa) could then be analyzed by dividing the applied force by the cross section of the sample. The applied force consisted of a pre-load of 1.41 kPa held constantly for 30 s; the full load of 5.97 kPa was then constantly applied for 30 s. The stiffness (compressive modulus, in kPa) of the collagen scaffold cultured with MDA-MB-231 and exposed for 72 h to all treatment groups was computed as the ratio between the increment of stress and increment of strain from the preload to the full load values. The samples were analyzed in air immediately after having been removed from the PBS where they were soaked. Five samples of each type were tested and each specimen was tested 10 times.

[3] = tested on: MDA-MB-231 orthotopic xenograft; experiment: Survival study (Kaplan-Meier); assay type: in vivo, NU/NU nude mice; settings: 55 days post treatment
Experimental: Mice (n=10 per cohort) were sacrificed when the tumor volume reached 2000 mm^3 or when showing signs of morbidity. Data were analyzed using the Kaplan-Meier method. Comparisons among different treatment groups were performed using the log rank test for trend and considered significant with a p value less than 0.05.

[4] = human, clinical data [28]; cited from earlier work
[5] = Safety: body weight change and H&E histology of hearts; assay type: in vivo, NU/NU nude mice
Experimental: as §1
(§2) Explanted mice organs (heart, liver, spleen, kidneys, lungs, tibia) and tumors were washed twice with PBS, embedded in a cryomold in O.C.T. (Tissue-Tek® O.C.T. Compound, Sakura® Finetek), and frozen at −80 degree. Ten μm-thick slides were obtained cutting tissues block with a cryostat at −20 degree. The slides were then stored at −20 degree until the analysis.
(§3) Hematoxylin and eosin (H&E) staining was performed to evaluate the efficacy and safety of Lipo-EPI-LOX compared to the other treatment groups. Briefly the organs and tumor slides were thawed, hydrated and stained with H&E following the manufacturer's instructions. The stained slides were analyzed with an optical Zeiss Axioskop microscope (Carl Zeiss, Gottingen, Germany) equipped with a Polaroid camera.

[6] = tested on: MDA-MB-231 orthotopic xenograft; experiment: Histological analysis (H&E) and collagen quantification of explanted tumors; assay type: in vivo, NU/NU nude mice; settings: H&E sections of explanted tumors, 55 days post treatment; control 5%
Experimental: as §2, §3
Tumors frozen 5-μm-thick slides were fixed for 5 min in formalin 10% solution, then washed and stained with Weigert's haematoxylin. Then the sections were stained with 0.1% (Direct Red 80) (Sigma Aldrich) picrosirius red in saturated aqueous solution of picric acid. The stained slides were analyzed with the NIS Elements software (Nikon Corporation, Tokyo, Japan).

## COc1cccc2c1C(=O)c1c(O)c3c(c(O)c1C2=O)C[C@@](O)(C(=O)CO)C[C@@H]3O[C@H]1C[C@H](N)[C@@H](O)[C@H](C)O1 [Free EPI, epirubicin hydrochloride]
[1]
  tumor volume (tumor growth): 1029 mm^3
[2]
  average compressive modulus (scaffold stiffness): 64.38 kPa
[3]
  survival: less than 50%
[4]
  plasma peak concentration: 3.4 µg/mL
[5]; H&E hearts
  inflammatory infiltrate in myocardial tissue (cardiotoxicity): increment of cellularity due to the inflammatory infiltrate
[5]; end of study, D33 versus D0, CTR 3.3%
  increase in body weight: 3.7%
[6]
  necrotic tumor cells: 20%

Source: patent US20240050587A1, “LIPOSOMES COMPRISING ANTI-LOX ANTIBODY” (ISTITUTO SCIENTIFICO ROMAGNOLO PER LO STUDIO E LA CURA DEI …, priority 2019, published 2024)
